Key:
Format in all cases: cell-based
[1] = molecular target: proteins of HEK293T cells transiently overexpressing caspase-6 (Homo sapiens, UniProt P11586); conditions: Probe; protein MTHFD1 P11586
[2] = molecular target: T1, proteins of HEK293T cells transiently overexpressing caspase-6 (Homo sapiens, UniProt P54136); conditions: exp_ref Probe; protein RARS (P54136); analysis C6
T1 sequence (P54136 1-660): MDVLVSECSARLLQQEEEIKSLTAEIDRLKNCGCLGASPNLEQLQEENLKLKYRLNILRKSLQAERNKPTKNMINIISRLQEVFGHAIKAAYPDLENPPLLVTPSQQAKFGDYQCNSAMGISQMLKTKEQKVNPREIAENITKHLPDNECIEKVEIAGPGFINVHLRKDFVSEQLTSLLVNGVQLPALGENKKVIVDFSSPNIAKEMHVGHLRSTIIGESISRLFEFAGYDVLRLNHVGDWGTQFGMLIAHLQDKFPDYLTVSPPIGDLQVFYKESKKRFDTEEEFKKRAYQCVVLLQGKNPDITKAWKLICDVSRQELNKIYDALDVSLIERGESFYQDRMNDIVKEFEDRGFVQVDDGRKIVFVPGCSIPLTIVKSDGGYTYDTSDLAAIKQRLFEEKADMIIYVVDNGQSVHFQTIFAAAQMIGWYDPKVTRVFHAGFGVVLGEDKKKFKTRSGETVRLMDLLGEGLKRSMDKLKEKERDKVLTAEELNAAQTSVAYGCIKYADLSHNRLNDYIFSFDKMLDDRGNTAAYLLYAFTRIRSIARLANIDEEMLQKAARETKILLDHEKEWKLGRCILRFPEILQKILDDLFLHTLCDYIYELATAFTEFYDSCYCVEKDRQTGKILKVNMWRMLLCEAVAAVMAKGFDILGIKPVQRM

[3] = molecular target: proteins of HEK293T cells transiently overexpressing caspase-6 (Homo sapiens, UniProt P49189); conditions: exp_ref Probe; protein ALDH9A1 (P49189); analysis C6
[4] = molecular target: T2, proteins of HEK293T cells transiently overexpressing caspase-6 (Homo sapiens, UniProt P40926); conditions: protein MDH2 (P40926)
T2 sequence (P40926 25-338): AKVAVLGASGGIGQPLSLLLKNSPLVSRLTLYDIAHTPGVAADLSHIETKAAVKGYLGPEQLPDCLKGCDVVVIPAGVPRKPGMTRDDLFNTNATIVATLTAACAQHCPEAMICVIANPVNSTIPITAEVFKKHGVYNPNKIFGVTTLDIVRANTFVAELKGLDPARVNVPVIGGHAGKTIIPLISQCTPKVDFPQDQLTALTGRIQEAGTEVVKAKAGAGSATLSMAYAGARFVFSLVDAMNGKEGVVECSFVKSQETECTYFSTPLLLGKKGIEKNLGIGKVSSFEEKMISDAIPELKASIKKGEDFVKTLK

[5] = molecular target: proteins of HEK293T cells transiently overexpressing caspase-6 (Homo sapiens, UniProt P16615); conditions: protein ATP2A2 (P16615)
Chain of proteins of HEK293T cells transiently overexpressing caspase-6 (Homo sapiens, UniProt P16615) (P16615 whole entry): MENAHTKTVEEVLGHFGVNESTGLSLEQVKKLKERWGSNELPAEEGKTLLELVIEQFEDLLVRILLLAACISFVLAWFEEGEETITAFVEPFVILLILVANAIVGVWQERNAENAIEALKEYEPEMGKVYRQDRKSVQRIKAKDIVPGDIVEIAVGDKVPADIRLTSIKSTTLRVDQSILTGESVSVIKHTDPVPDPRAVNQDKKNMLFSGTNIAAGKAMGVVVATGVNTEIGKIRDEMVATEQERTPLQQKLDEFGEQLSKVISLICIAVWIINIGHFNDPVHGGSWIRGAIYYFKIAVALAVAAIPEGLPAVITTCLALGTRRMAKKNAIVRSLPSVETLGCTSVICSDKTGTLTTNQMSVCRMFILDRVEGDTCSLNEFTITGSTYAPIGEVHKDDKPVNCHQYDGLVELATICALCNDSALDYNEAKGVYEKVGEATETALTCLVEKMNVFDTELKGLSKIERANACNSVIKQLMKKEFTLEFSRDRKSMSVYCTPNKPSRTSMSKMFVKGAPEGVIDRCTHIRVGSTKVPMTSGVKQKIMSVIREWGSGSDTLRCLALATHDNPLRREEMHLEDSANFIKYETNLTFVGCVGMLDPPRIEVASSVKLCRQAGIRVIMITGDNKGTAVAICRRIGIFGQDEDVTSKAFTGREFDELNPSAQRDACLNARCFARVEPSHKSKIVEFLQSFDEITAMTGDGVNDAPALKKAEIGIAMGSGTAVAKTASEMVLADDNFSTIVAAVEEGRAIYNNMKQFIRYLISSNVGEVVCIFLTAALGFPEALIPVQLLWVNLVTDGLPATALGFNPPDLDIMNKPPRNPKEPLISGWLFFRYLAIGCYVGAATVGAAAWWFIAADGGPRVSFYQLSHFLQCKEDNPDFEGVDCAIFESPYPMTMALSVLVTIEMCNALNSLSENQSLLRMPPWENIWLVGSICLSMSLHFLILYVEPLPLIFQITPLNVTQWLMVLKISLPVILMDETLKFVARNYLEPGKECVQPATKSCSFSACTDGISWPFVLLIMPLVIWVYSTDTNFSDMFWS

[6] = molecular target: proteins of HEK293T cells transiently overexpressing caspase-6 (Homo sapiens, UniProt P14625); conditions: exp_ref Probe; protein HSP90B1 (P14625); analysis C6
[7] = molecular target: proteins of HEK293T cells transiently overexpressing caspase-6 (Homo sapiens, UniProt Q9BT22); conditions: exp_ref Probe; protein ALG1 (Q9BT22); analysis C6
Chain of proteins of HEK293T cells transiently overexpressing caspase-6 (Homo sapiens, UniProt Q9BT22) (Q9BT22 whole entry): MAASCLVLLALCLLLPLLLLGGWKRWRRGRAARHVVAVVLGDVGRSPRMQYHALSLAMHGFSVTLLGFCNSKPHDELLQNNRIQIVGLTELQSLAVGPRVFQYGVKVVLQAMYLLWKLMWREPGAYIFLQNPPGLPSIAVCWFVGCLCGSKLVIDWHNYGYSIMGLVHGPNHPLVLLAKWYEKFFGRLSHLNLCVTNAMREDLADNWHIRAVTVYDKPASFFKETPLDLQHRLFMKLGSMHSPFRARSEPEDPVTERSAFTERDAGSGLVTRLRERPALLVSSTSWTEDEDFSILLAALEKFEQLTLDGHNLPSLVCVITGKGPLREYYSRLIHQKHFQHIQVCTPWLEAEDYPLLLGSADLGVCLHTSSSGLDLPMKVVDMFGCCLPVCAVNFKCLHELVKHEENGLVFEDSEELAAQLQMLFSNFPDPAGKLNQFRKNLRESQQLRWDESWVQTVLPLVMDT

[8] = molecular target: proteins of HEK293T cells transiently overexpressing caspase-6 (Homo sapiens, UniProt P63241); conditions: exp_ref Probe; protein EIF5A (P63241); analysis C6
Chain of proteins of HEK293T cells transiently overexpressing caspase-6 (Homo sapiens, UniProt P63241) (P63241 whole entry): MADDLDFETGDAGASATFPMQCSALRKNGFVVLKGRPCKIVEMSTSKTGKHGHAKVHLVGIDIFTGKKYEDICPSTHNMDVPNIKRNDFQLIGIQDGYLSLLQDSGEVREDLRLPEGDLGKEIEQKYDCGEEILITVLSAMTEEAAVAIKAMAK

[9] = molecular target: proteins of HEK293T cells transiently overexpressing caspase-6 (Homo sapiens, UniProt Q9Y5M8); conditions: exp_ref Probe; protein SRPRB (Q9Y5M8); analysis C6
Chain of proteins of HEK293T cells transiently overexpressing caspase-6 (Homo sapiens, UniProt Q9Y5M8) (Q9Y5M8 whole entry): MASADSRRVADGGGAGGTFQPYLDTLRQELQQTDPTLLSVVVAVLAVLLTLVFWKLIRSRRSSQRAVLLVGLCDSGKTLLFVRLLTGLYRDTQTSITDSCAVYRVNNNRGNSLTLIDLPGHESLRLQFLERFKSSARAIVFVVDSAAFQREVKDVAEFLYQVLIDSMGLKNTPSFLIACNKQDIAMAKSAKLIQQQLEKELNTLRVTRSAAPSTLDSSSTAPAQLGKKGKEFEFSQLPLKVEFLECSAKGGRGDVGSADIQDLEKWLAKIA

[10] = molecular target: proteins of HEK293T cells transiently overexpressing caspase-6 (Homo sapiens, UniProt Q16658); conditions: exp_ref Probe; protein FSCN1 (Q16658); analysis C6
[11] = molecular target: proteins of HEK293T cells transiently overexpressing caspase-6 (Homo sapiens, UniProt P34932); conditions: Probe; protein HSPA4 P34932
Chain of proteins of HEK293T cells transiently overexpressing caspase-6 (Homo sapiens, UniProt P34932) (P34932 whole entry): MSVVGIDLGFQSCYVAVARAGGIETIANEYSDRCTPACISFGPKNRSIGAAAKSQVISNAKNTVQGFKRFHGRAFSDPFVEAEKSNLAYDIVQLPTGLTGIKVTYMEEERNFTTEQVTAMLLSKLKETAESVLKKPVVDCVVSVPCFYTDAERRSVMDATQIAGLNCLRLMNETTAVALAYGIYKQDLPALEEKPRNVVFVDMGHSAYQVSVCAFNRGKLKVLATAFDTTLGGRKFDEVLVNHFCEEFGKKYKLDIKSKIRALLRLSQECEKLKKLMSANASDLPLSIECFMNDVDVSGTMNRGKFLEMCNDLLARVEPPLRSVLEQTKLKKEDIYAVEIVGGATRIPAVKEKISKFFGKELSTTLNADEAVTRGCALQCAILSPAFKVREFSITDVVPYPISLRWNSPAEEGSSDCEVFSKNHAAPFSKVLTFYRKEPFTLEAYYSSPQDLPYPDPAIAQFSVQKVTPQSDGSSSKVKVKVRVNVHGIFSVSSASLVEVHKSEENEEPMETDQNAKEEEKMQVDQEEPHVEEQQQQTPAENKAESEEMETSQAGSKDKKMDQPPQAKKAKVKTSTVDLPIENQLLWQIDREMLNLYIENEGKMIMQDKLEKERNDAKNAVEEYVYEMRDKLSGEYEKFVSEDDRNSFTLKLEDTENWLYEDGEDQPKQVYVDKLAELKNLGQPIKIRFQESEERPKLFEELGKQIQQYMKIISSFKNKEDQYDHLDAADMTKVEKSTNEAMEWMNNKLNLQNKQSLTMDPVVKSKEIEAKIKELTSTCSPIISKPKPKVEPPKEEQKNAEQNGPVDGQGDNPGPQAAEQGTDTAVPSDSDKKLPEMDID

[12] = molecular target: proteins of HEK293T cells transiently overexpressing caspase-6 (Homo sapiens, UniProt P13639); conditions: protein EEF2 (P13639)
[13] = molecular target: proteins of HEK293T cells transiently overexpressing caspase-6 (Homo sapiens, UniProt Q9NZI8); conditions: Probe; protein IGF2BP1 Q9NZI8
Chain of proteins of HEK293T cells transiently overexpressing caspase-6 (Homo sapiens, UniProt Q9NZI8) (Q9NZI8 whole entry): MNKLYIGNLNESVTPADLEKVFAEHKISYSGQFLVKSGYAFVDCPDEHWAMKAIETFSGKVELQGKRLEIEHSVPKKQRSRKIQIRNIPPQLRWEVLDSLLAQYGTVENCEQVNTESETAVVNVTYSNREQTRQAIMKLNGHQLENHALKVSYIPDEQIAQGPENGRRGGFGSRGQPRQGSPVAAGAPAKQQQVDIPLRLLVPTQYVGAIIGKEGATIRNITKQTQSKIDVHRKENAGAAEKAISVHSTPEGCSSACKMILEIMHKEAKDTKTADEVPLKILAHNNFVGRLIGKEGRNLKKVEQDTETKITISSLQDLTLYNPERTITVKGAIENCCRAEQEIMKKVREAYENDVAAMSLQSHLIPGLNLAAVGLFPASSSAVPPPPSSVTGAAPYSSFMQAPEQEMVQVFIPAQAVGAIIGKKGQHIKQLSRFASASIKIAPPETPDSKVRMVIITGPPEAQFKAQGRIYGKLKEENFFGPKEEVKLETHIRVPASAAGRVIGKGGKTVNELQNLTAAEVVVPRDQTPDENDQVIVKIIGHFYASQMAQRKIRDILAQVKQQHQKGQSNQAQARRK

[14] = molecular target: proteins of HEK293T cells transiently overexpressing caspase-6 (Homo sapiens, UniProt P17844); conditions: exp_ref Probe; protein DDX5 (P17844); analysis C6
Chain of proteins of HEK293T cells transiently overexpressing caspase-6 (Homo sapiens, UniProt P17844) (P17844 whole entry): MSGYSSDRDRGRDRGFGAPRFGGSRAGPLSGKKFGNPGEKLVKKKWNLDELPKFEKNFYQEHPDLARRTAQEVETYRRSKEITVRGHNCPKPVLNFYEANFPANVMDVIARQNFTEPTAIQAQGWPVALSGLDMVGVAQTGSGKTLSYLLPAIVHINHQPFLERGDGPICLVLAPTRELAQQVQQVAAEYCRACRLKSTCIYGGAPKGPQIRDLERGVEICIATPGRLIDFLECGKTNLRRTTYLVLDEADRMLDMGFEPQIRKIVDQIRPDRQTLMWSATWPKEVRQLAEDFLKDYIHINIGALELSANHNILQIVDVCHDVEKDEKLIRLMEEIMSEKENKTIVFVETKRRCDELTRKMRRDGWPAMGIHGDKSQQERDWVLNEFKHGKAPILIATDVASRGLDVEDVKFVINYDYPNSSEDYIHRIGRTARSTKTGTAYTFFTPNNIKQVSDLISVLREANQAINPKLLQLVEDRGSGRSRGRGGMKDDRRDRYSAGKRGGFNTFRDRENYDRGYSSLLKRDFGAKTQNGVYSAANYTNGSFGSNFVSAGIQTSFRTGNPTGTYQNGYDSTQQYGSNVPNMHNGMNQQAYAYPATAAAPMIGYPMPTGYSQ

Chain of proteins of HEK293T cells transiently overexpressing caspase-6 (Homo sapiens, UniProt P11586) (P11586 whole entry): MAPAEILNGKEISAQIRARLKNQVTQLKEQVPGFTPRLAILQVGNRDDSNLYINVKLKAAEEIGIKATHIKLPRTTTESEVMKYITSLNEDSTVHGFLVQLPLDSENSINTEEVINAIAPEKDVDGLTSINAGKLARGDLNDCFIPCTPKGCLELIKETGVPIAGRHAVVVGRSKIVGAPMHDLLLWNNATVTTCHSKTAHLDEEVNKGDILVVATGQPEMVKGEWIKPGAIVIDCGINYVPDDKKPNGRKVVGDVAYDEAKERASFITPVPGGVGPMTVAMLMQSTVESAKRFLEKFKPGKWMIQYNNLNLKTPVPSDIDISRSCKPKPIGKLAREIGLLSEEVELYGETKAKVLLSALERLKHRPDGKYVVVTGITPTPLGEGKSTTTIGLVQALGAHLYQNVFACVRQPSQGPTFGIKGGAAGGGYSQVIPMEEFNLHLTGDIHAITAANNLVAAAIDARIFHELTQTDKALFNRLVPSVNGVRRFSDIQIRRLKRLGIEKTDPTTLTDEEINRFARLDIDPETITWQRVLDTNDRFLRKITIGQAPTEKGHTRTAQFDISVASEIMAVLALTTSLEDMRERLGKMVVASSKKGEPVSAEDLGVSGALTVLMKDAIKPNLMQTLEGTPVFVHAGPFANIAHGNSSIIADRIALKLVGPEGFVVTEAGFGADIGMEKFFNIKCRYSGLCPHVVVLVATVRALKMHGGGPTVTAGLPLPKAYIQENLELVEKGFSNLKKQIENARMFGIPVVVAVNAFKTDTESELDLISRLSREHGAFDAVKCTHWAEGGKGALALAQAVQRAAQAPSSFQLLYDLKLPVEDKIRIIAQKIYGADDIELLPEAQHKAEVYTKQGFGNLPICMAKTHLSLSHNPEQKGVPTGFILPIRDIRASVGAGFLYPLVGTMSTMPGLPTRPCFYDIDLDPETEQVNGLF

C#CCOc1ccc([C@@H]2C[C@@H](C(=O)Nc3ccc(OC(F)(F)F)cc3)CN(S(=O)(=O)C=C)C2)cc1 (relative stereo) [13-t]
enrich.exp.med [1]: -1.178 | enrich.exp.med [2]: 0.9191 | enrich.exp.med [3]: 0.2139 | enrich.exp.med ([4]; exp_ref Probe, analysis C6): 0.3462 | enrich.exp.med.lin [4]: 1.2712 | enrich.exp.med.log2 [4]: 0.3462 | enrich.exp.med.lin [5]: 2.861 | enrich.exp.med.log2 [5]: 1.516 | enrich.exp.med ([5]; exp_ref Probe, analysis C6): 1.516 | enrich.exp.med [6]: 0.4413 | enrich.exp.med [7]: 0.4836 | enrich.exp.med [8]: -0.3746 | enrich.exp.med [9]: 0.6428 | enrich.exp.med [10]: 0.2175 | enrich.exp.med [11]: -1.079 | enrich.exp.med ([12]; exp_ref Probe, analysis C6): 0.2961 | enrich.exp.med.lin [12]: 1.228 | enrich.exp.med.log2 [12]: 0.2961 | enrich.exp.med [13]: -0.7898 | enrich.exp.med [14]: -0.0188

From PMC10176470, “Engaging a Non-catalytic Cysteine Residue Drives Potent and Selective Inhibition of Caspase-6” (Journal of the American Chemical Society, 2023)
